From patent US20110312984A1, “STAT3 INHIBITORS” (priority 2008, published 2011)
“Also recorded” adds a separate entry of the source. Like-named read-outs stand apart in the source and are kept apart here.

Columns and labels:
Stat3 = target: T1, Stat3 (Homo sapiens, UniProt P40763); assay: Immunoblot assay: IL-6-mediated phosphorylation of Stat3 in HepG2 cells; type: cell-based
T1 construct: endogenous in cells; host or cells: HepG2
Experimental: Immunoblot assay. The human hepatocellular carcinoma cell line (HepG2) was grown in 6-well plates under standard conditions. […] Prestained molecular weight markers (Biorad, Hercules, Calif.) were included in each gel. […] Membranes were stripped between antibody probing using Restore™ Western Blot Stripping Buffer (Thermo Fisher Scientific Inc., Waltham, Mass.) per the manufacturer's instructions. Horseradish peroxidase-conjugated goat-anti-mouse IgG was used as the secondary antibody (Invitrogen Carlsbad, Calif.) and the membranes were developed with enhanced chemiluminescence (ECL) detection system (Amersham Life Sciences Inc.; Arlington Heights, Ill.).
Ligand-mediated pStat3 and pStat1 inhibition assays. […] Membranes are probed serially with antibody against Stat1 pY701 or Stat3 pY705 followed by antibody against Stat 1 or Stat3 (Transduction labs, Lexington, Ky.) then antibody against β-actin (Abcam, Cambridge, Mass.). Membranes are stripped between antibody probings using Restore™ Western Blot Stripping Buffer (Thermo Fisher Scientific Inc., Waltham, Mass.) per the manufacturer's instructions. Horseradish peroxidase-conjugated goat-anti-mouse IgG is used as the secondary antibody (Invitrogen Carlsbad, Calif.) and the membranes are developed with enhanced chemiluminescence (ECL) detection system (Amersham Life Sciences Inc.; Arlington Heights, Ill.). Band intensities are quantified by densitometry. The value of each pStat3 band is divided by its corresponding total Stat3 band intensity; the results are normalized to the DMSO-treated control value. This value was plotted as a function of the log compound concentration. The best-fitting curve is determined using 4-Parameter Logistic Model/Dose Response/XLfit 4.2, IDBS software and was used to calculate the IC50 value.

GFP-Stat3α = target: T2, GFP-Stat3α (Homo sapiens, UniProt P40763); assay: High-throughput fluorescence microscopy (HTFM), cytoplasm-to-nucleus translocation inhibition in MEF/GFP-Stat3α cells; type: cell-based, murine
T2 construct: expressed in transfected cells; host or cells: murine embryonic fibroblasts (MEF) deficient in endogenous Stat3
Experimental: Confocal and highthroughput fluorescence microscopy (HTFM) of MEF/GFP-Stat3α cells were performed as described (Huang et al., 2007). […] For HTFM, cells were seeded into 96-well CC3 plates at a density of 5,000 cells/well using an automated plating system. Cells were cultured under standard conditions until 85-90% confluent. Cells were pretreated with compound for 1 hour at 37° C. then stimulated with IL-6 (200 ng/ml) and IL-6sR (250 ng/ml) for 30 minutes. Cells fixed with 4% formaldehyde in PEM Buffer (80 mM Potassium PIPES, pH 6.8, 5 mM EGTA pH 7.0, 2 mM MgCl2) for 30 minutes at 4° C., quenched in 1 mg/ml of NaBH4 (Sigma) in PEM buffer and counterstained for 1 min in 4,6-diamidino-2-phenylindole (DAPI; Sigma; 1 mg/ml) in PEM buffer. […] Plates were analyzed by automated HTFM using the Cell Lab IC Image Cytometer (IC100) platform and CytoshopVersion 2.1 analysis software (Beckman Coulter). Nuclear translocation is quantified by using the fraction localized in the nucleus (FLIN) measurement (Sharp et al., 2006).
High throughput fluorescence microscopy (HTFM), cytoplasm-to-nucleus translocation inhibition assays. […] Briefly, cells are seeded into 96-well CC3 plates at a density of 5,000 cells/well and cultured under standard conditions until 85-90% confluent. Cells are pre-treated with compound for 1 hour at 37° C. then stimulated with IL-6 (100 ng/ml) and IL-6sR (150 ng/ml) for 30 minutes. Cells are fixed with 4% formaldehyde in PEM Buffer (80 mM Potassium PIPES, pH 6.8, 5 mM EGTA pH 7.0, 2 mM MgCl2) for 30 minutes at 4° C., quenched in 1 mg/ml of NaBH4 (Sigma) in PEM buffer and counterstained for 1 min in 4,6-diamidino-2-phenylindole (DAPI; Sigma; 1 mg/ml) in PEM buffer. Plates are analyzed by automated HTFM using the Cell Lab IC Image Cytometer (IC100) platform and CytoshopVersion 2.1 analysis software (Beckman Coulter).
Nuclear translocation is quantified by using the fraction localized in the nucleus (FLIN) measurement. […] The best-fitting curve and IC50 value are determined using 4-Parameter LogisticModel/Dose Response/XLfit 4.2, IDBS software.

Stat3:hSIE complexes = target: T3, Stat3:hSIE complexes (Homo sapiens, UniProt P40763); assay: Electrophoretic mobility shift assay (EMSA) with hSIE probe, extracts of IL-6-stimulated HepG2 cells; type: biochemical; settings: 300 μM, 60 minutes at 37° C.
T3 construct: endogenous in cells; host or cells: HepG2
Experimental: Electrophoretic Mobility Shift Assay (EMSA): EMSA was performed using the hSIE radiolabeled duplex oligonucleotide as a probe as described (Tweardy et al., 1995). Briefly, high salt extracts were prepared from HepG2 cells incubated without or with IL-6 (30 ng/ml) for 30 minutes. Protein concentration was determined by Bradford Assay and 20 ug of extract was incubated with compound (300 uM) for 60 minutes at 37° C. […] Gels were dried and autoradiographed.

Stat1 = target: T4, Stat1 (Homo sapiens, UniProt P42224); assay: Immunoblot assay: IFN-γ-mediated phosphorylation of Stat1 in HepG2 cells; type: cell-based; settings: 300 μM, 1 hour at 37° C. before IFN-γ stimulation
T4 construct: endogenous in cells; host or cells: HepG2
T4 sequence (P42224 1-750): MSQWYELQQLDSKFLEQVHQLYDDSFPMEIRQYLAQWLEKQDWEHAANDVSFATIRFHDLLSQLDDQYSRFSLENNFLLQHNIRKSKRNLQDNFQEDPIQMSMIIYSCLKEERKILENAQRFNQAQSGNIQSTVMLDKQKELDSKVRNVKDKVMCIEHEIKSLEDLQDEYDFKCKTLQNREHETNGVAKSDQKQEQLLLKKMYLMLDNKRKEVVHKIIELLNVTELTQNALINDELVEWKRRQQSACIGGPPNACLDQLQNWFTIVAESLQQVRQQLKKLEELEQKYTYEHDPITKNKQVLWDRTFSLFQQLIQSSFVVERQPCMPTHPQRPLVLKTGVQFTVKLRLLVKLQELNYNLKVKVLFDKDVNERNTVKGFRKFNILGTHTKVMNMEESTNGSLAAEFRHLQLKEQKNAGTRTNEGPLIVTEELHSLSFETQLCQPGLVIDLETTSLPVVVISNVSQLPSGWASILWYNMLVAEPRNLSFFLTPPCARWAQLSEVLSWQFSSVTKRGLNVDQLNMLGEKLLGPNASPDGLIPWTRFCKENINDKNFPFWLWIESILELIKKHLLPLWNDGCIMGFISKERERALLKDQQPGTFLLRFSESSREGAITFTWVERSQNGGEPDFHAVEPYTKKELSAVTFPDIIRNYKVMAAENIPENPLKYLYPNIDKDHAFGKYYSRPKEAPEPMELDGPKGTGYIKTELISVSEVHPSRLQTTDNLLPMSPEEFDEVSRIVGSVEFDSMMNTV
Experimental: Immunoblot assay. The human hepatocellular carcinoma cell line (HepG2) was grown in 6-well plates under standard conditions. Cells were pretreated with compounds (0, 1, 3, 10, 30, 100 and 300 uM) for 1 hour then stimulated under optimal conditions with either interferon gamma (IFN-γ; 30 ng/ml for 30 min) to activate Stat1 or interleukin-6 (IL-6; 30 ng/ml for 30 min) to activate Stat3 (30-31). Cultures were then harvested and proteins extracted using high-salt buffer, as described (Shao et al., 2006). Briefly, extracts were mixed with 2× sodium dodecyl sulfate (SDS) sample buffer (125 mmol/L Tris-HCL pH 6.8; 4% SDS; 20% glycerol; 10% 2-mercaptoethanol) at a 1:1 ratio and heated for 5 minutes at 100° C. Proteins (20 μg) were separated by 7.5% SDS-PAGE and transferred to polyvinylidene fluoride (PVDF) membrane (Millipore, Waltham, Mass.) and immunoblotted. Prestained molecular weight markers (Biorad, Hercules, Calif.) were included in each gel. Membranes were probed serially with antibody against Stat1 pY^701 or Stat3 pY^705 followed by antibody against Stat1 or Stat3 (Transduction labs, Lexington, Ky.) then antibody against β-actin (Abcam, Cambridge, Mass.). Membranes were stripped between antibody probing using Restore™ Western Blot Stripping Buffer (Thermo Fisher Scientific Inc., Waltham, Mass.) per the manufacturer's instructions. Horseradish peroxidase-conjugated goat-anti-mouse IgG was used as the secondary antibody (Invitrogen Carlsbad, Calif.) and the membranes were developed with enhanced chemiluminescence (ECL) detection system (Amersham Life Sciences Inc.; Arlington Heights, Ill.).
EXP IIC. Ligand-mediated pStat3 and pStat1 inhibition assays. […] Briefly, human hepatocellular carcinoma cells (HepG2) are grown in 6-well plates and pretreated with compounds (0, 0.1, 0.3, 1, 3, 10, 30, 100 μM) for 1 hour then stimulated under optimal conditions with either interleukin-6 (IL-6; 30 ng/ml for 30 min) to activate Stat3 or interferon gamma (IFN-γ; 30 ng/ml for 30 min) to activate Stat1. Cells are harvested and proteins extracted using high-salt buffer, mixed with 2× sodium dodecyl sulfate (SDS) sample buffer (125 mmol/L Tris-HCL pH 6.8; 4% SDS; 20% glycerol; 10% 2-mercaptoethanol) at a 1:1 ratio then heated for 5 minutes at 100° C. Proteins (20 μg) are separated by 7.5% SDS-PAGE and transferred to polyvinylidene fluoride (PVDF) membrane (Millipore, Waltham, Mass.) and immunoblotted. Membranes are probed serially with antibody against Stat1 pY701 or Stat3 pY705 followed by antibody against Stat 1 or Stat3 (Transduction labs, Lexington, Ky.) then antibody against β-actin (Abcam, Cambridge, Mass.). Membranes are stripped between antibody probings using Restore™ Western Blot Stripping Buffer (Thermo Fisher Scientific Inc., Waltham, Mass.) per the manufacturer's instructions. Horseradish peroxidase-conjugated goat-anti-mouse IgG is used as the secondary antibody (Invitrogen Carlsbad, Calif.) and the membranes are developed with enhanced chemiluminescence (ECL) detection system (Amersham Life Sciences Inc.; Arlington Heights, Ill.). Band intensities are quantified by densitometry. The value of each pStat3 band is divided by its corresponding total Stat3 band intensity; the results are normalized to the DMSO-treated control value. This value was plotted as a function of the log compound concentration. The best-fitting curve is determined using 4-Parameter Logistic Model/Dose Response/XLfit 4.2, IDBS software and was used to calculate the IC50 value.

[1] = tested on: breast cancer cells with constitutively activated Stat3; settings: cited from earlier work
human leukemic cell line = assay: Leukemic cell line (AML) apoptosis assay; type: cell-based
MDA-MB-231 = settings: 5 mg/kg every 2-3 days; cited from earlier work
[2] = HepG2, compound 1 hour, IL-6 30 ng/ml 30 min, read-out: pStat3 IC50 (IL-6-mediated phosphorylation of Stat3)
[3] = MEF/GFP-Stat3α, IL-6 200 ng/ml and IL-6sR 250 ng/ml 30 min, read-out: HTM IC50 (ligand-mediated nuclear translocation of GFP-Stat3α)

T1 sequence (P40763 2-770 limits assumed): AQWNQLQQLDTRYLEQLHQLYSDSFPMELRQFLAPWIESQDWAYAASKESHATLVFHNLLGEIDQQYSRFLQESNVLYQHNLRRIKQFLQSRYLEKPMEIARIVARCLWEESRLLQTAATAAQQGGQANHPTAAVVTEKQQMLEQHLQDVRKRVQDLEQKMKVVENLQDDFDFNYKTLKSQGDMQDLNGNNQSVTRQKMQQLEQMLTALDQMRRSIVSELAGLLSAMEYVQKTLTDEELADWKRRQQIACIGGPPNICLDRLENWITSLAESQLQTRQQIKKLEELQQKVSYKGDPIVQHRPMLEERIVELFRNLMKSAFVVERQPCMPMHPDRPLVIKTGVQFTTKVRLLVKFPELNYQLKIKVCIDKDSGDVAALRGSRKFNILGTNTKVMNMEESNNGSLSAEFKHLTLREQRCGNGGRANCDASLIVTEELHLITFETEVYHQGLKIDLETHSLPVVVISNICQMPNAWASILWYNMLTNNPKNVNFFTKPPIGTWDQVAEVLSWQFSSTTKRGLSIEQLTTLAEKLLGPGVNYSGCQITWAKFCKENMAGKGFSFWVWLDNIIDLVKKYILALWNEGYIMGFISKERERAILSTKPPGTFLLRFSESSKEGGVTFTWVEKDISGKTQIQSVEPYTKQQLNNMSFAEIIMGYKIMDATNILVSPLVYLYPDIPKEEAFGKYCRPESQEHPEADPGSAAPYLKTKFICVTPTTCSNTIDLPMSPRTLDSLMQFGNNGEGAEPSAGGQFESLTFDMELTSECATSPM
T2 sequence (P40763 whole entry): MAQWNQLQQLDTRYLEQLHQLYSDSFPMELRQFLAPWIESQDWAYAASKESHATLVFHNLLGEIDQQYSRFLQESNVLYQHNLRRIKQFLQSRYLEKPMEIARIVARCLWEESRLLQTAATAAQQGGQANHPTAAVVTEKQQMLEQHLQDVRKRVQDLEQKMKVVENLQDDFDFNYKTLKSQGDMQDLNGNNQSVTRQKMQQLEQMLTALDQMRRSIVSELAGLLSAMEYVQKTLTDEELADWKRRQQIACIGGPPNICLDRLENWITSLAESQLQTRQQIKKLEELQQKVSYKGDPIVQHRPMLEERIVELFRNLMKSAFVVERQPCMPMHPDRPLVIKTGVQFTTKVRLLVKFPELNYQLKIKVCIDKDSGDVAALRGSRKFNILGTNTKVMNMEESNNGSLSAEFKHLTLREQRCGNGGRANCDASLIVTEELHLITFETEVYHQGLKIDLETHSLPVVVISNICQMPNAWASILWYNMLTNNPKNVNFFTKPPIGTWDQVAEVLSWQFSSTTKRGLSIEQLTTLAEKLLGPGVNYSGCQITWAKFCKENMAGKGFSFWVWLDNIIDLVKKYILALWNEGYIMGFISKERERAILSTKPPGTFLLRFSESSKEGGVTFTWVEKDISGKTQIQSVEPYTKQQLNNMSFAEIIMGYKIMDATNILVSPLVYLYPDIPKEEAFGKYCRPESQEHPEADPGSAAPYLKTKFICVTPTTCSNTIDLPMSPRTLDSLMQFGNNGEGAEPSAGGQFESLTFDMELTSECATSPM
T3 sequence (P40763 2-770 limits assumed, one chain of several): as the sequence (P40763 2-770 limits assumed) above

Q: For O=C(O)c1ccc(C=CC(=O)c2ccc3c(c2)OCCO3)cc1 [Cpd3, 4-[3-(2,3-dihydro-1,4-benzodioxin-6-yl)-3-oxo-1-propen-1-yl]benzoic acid], which IC50 (Stat3; [2]) is on record?
A: Its IC50 is 91 µM.

Q: And the IC50 (GFP-Stat3α; [3])?
A: Its IC50 is 131 µM.

Q: And the “amount of hSIE shifted (Stat3:hSIE band intensity)” value (Stat3:hSIE complexes)?
A: The value was “reduced the amount of hSIE shifted by half or greater”.

Q: And the Stat1 phosphorylation blocked (Stat1)?
A: The Stat1 phosphorylation blocked was “did not”.

Q: With O=[N+]([O-])c1ccc2c(c1)S(=O)(=O)C=C2 [Stattic] as the molecule, how does the “active concentration range (binding, phosphorylation, translocation, DNA binding, apoptosis)” value [1] read?
A: Its value is 5 to 20 µM.

Q: With COc1ccc(S(=O)(=O)Nc2cc(-c3c(O)ccc4ccccc34)c(O)c3ccccc23)cc1 [Cpd188-9] as the molecule, how does the “leukemic cell line apoptosis activity compared with parent Cpd188” value (human leukemic cell line) read?
A: Its value is “one log better; also recorded: a log greater activity”.

Q: For Cc1ccc(S(=O)(=O)OCC(=O)Nc2ccc(C(=O)O)c(O)c2)cc1 [S3I-201], which “growth of nude mice xenografts” value (MDA-MB-231) is on record?
A: Its value is “inhibited growth”.

Q: With CCOc1cc(C=C2C(=O)c3ccccc3C2=O)cc(Cl)c1OCc1cccc(C(=O)O)c1 [Cpd3-2, 3-({2-chloro-4-[(1,3-dioxo-1,3-dihydro-2H-inden-2-ylidene)methyl]-6-ethoxyphenoxy}methyl)benzoic acid] as the molecule, how does the IC50 (Stat3; [2]) read?
A: The IC50 was 144 µM.

Q: And the IC50 (GFP-Stat3α; [3])?
A: Its IC50 is 150 µM.

Q: And the Stat1 phosphorylation blocked (Stat1)?
A: The Stat1 phosphorylation blocked was “did not”.

Q: For CCN1C(=O)C(=Cc2ccc(-c3ccc(C(=O)O)cc3)o2)SC1=S [Cpd30, 4-{5-[(3-ethyl-4-oxo-2-thioxo-1,3-thiazolidin-5-ylidene)methyl]-2-furyl}benzoic acid], which Stat1 phosphorylation blocked (Stat1) is on record?
A: The Stat1 phosphorylation blocked was “did not”.

Q: With CCN1C(=O)C(=Cc2ccc(-c3cc(C(=O)O)ccc3Cl)o2)C(=O)N(CC)C1=S [Cpd30-12, 4-chloro-3-{5-[(1,3-diethyl-4,6-dioxo-2-thioxotetrahydro-5(2H)-pyrimidinylidene)methyl]-2-furyl}benzoic acid] as the molecule, how does the IC50 (Stat3) read?
A: The IC50 was 60 µM.

Q: What about the IC50 (GFP-Stat3α) of the same molecule?
A: Its IC50 is > 300 µM.

Q: What about the Stat1 phosphorylation blocked (Stat1) of the same molecule?
A: The Stat1 phosphorylation blocked was “blocked”.

Q: With COC(=O)Cc1c(C)c2ccc(OCc3ccc(C(=O)OC)cc3)c(C)c2oc1=O [Cpd3-7, methyl 4-({[3-(2-methyoxy-2-oxoethyl)-4,8-dimethyl-2-oxo-2H-chromen-7-yl]oxy}methyl)benzoate] as the molecule, how does the Stat1 phosphorylation blocked (Stat1) read?
A: Its Stat1 phosphorylation blocked is “did not”.
